The subject of the assay is human colon cancer LoVo cells. Put plainly: Cell proliferation inhibition assay (CellTiter-Glo). Format: cell-based. As to conditions: LoVo cells, 96 hours, CellTiter-Glo; for pIC50 / Emax: Homo sapiens; for pIC50: read-out: LoVo IC50; for Emax: read-out: Max Inhibition. From the text:
Experimental method: A CellTiter-Glo cell viability assay kit was used to test the inhibitory effect of the compounds on the in vitro proliferation of human colon cancer LoVo cells.
Experimental materials: LoVo cells (ATCC, Cat. No. CCL-29); F-12K medium (Invitrogen, Cat. No. 21127-022); fetal bovine serum (Biological Industries, Cat. No. 04-002-1A); GlutaMAX (Gibco, Cat. No. 35050-061); 0.25% trypsin-EDTA (Invitrogen, Cat. No. 25200-072); CellTiter-Glo kit (Promega, Cat. No. G7558).
Experimental procedure: (1) F-12K medium, fetal bovine serum and GlutaMAX were formulated into a complete medium for culturing LoVo cells; (2) well-grown LoVo cells were taken, digested with trypsin and transferred to a centrifuge tube, and centrifuged; the supernatant was discarded, and cells were resuspended by adding a fresh medium and counted by a Vi-CELL XR cell counter; the density of the cell suspension was adjusted to 25,000 to 30,000 cells/mL, and the cell suspension was added at 100 μL/well in a 96-well cell culture plate, while a blank control group was set up with no cells added, and the cell culture plate was incubated in a carbon dioxide incubator overnight; (3) a DMSO solution of the compound to be tested was dispensed into the above 96-well cell culture plate using an HP D300 ultra-micro sampler, with 0.5 μL of the solution per well and 10 concentrations for each compound (3× dilution), while a DMSO control group with no compound added was set up, and the plate was continued to be incubated in a carbon dioxide incubator for 96 hours; (4) the cell culture plate was taken out and equilibrated to room temperature, with 100 μL of a CellTiter-Glo reagent added to each well, and then the plate was kept away from light, shaken for 10 minutes and then incubated for 10 minutes; (5) the cell culture plate was put into EnSpire for plate reading, and the luminescence value RLU was recorded.
Data processing: (1) The inhibition rate was calculated from the luminescence values: “RLUDMSO” is the luminescence value of the DMSO control group without compound, “RLUblank” is the luminescence value of the blank control group without cells, and “RLUcompound” is the luminescence value of the compound test group, and the inhibition rate=[1−(RLUcompound−RLUblank)/(RLUDMSO−RLUblank)]×100%; (2) with curve fitting using the Excel add-on XLFit, the IC50 value was calculated.
A general note: Cellular ATP, detected with luciferase, serves as a proxy for viable cell number.

pIC50: −log10 of the molar value.

This is an account of results in patent US12435095B2, “Substituted morpholines as ATR kinase inhibitors” (Shanghai Annova Biotechnology Co., Ltd., priority 2021, dated 2025).

As usually defined, the pIC50 is the IC50 on a negative log10 scale, so that one unit is a factor of ten.

For `C[C@@H]1COCCN1c1cc(-c2cccc3[nH]ccc23)nc2c1ccn2S(C)(=O)=O` [Compound 2, (R)-4-(6-(1H-indol-4-yl)-1-(methylsulfonyl)-1H-pyrrolo[2,3-b]pyridin-4-yl)-3-methylmorpholine], the pIC50 is 6.30 and the “Max Inhibition” value was determined as 94%.

With `C[C@@H]1COCCN1c1cc(-c2cncc3[nH]ccc23)nc2c1ccn2S(C)(=O)=O` [Compound 3, (R)-3-methyl-4-(1-(methylsulfonyl)-6-(1H-pyrrolo[2,3-c]pyridin-4-yl)-1H-pyrrolo[2,3-b]pyridin-4-yl)morpholine], the pIC50 was 6.37 and the “Max Inhibition” value was 93%.

In the case of `C[C@@H]1COCCN1c1cc(-c2ccnc3[nH]ccc23)nc2c1ccn2CS(C)(=O)=O` [Compound 4′, reference compound], the pIC50 was 5.63.

With `CC(n1ccc2c(N3CCOC[C@H]3C)cc(-c3ccnc4[nH]ccc34)nc21)S(C)(=O)=O` (some centres unmarked) [Compound 5′, reference compound], the pIC50 is 5.73.

Regarding `C[C@@H]1COCCN1c1cc(-c2cc(F)cc3[nH]ccc23)nc2c1ccn2S(C)(=O)=O` [Compound 7, (R)-4-(6-(6-fluoro-1H-indol-4-yl)-1-(methylsulfonyl)-1H-pyrrolo[2,3-b]pyridin-4-yl)-3-methylmorpholine], the pIC50 was 6.38 and the “Max Inhibition” value is on record as 95%.

On to `CC(C)S(=O)(=O)n1ccc2c(N3CCOC[C@H]3C)cc(-c3ccnc4[nH]ccc34)nc21` [Compound 14, (R)-4-(1′-(isopropylsulfonyl)-1H,1′H-[4,6′-dipyrrolo[2,3-b]pyridin]-4′-yl)-3-methylmorpholine], for which the pIC50 was 5.67 and the Emax came to 93%.

Consider `C[C@@H]1COCCN1c1cc(-c2ccnc3[nH]ccc23)nc2c1ccn2S(=O)(=O)C1CC1` [Compound 15, (R)-4-(1′-(cyclopropylsulfonyl)-1H,1′H-[4,6′-dipyrrolo[2,3-b]pyridin]-4′-yl)-3-methylmorpholine], for which the pIC50 is 5.90 and the Emax amounted to 94%.

For the molecule `C[C@@H]1COCCN1c1cc(-c2ccnc3[nH]ccc23)nc2c1ccn2S(=O)(=O)N(C)C` [Compound 16, (R)—N,N-dimethyl-4′-(3-methylmorpholinyl)-1H,1′H-[4,6′-dipyrrolo[2,3-b]pyridine]-1′-sulfamide], the pIC50 is 5.74 and the Emax stood at 93%.

For `C[C@@H]1COCCN1c1nc(-c2ccnc3[nH]ccc23)nc2c1ccn2S(C)(=O)=O` [Compound 17, (R)-3-methyl-4-(7-(methylsulfonyl)-2-(1H-pyrrolo[2,3-b]pyridin-4-yl)-7H-pyrrolo[2,3-d]pyrimidin-4-yl)morpholine], the pIC50 was 6.77 and the “Max Inhibition” value is reported as 93%.

With `C[C@@H]1COCCN1c1nc(-c2cccc3[nH]ccc23)nc2c1ccn2S(C)(=O)=O` [Compound 18, (R)-4-(2-(1H-indol-4-yl)-7-(methylsulfonyl)-7H-pyrrolo[2,3-d]pyrimidin-4-yl)-3-methylmorpholine], the pIC50 was 6.60 and the “Max Inhibition” value turned out to be 92%.

As to `C[C@@H]1COCCN1c1nc(-c2cncc3[nH]ccc23)nc2c1ccn2S(C)(=O)=O` [Compound 19, (R)-3-methyl-4-(7-(methylsulfonyl)-2-(1H-pyrrolo[2,3-c]pyridin-4-yl)-7H-pyrrolo[2,3-d]pyrimidin-4-yl)morpholine], the pIC50 was 7.15 and the “Max Inhibition” value came to 90%.

For `C[C@@H]1COCCN1c1nc(-c2cc(F)cc3[nH]ccc23)nc2c1ccn2S(C)(=O)=O` [Compound 20, (R)-4-(2-(6-fluoro-1H-indol-4-yl)-7-(methylsulfonyl)-7H-pyrrolo[2,3-d]pyrimidin-4-yl)-3-methylmorpholine], the pIC50 was 6.31 and the “Max Inhibition” value amounted to 91%.

On to `C[C@@H]1COCCN1c1nc(-c2ccnc3[nH]ccc23)nc2c1ccn2S(=O)(=O)CCO` [Compound 21, (R)-2-((4-(3-methylmorpholinyl)-2-(1H-pyrrolo[2,3-b]pyridin-4-yl)-7H-pyrrolo[2,3-d]pyrimidin-7-yl)sulfonyl)ethanol], for which the pIC50 is 6.15 and the Emax was determined as 92%.

In the case of `C[C@@H]1COCCN1c1nc(-c2ccnc3[nH]ccc23)nc2c1ncn2S(C)(=O)=O` [Compound 22, (R)-3-methyl-4-(9-(methylsulfonyl)-2-(1H-pyrrolo[2,3-b]pyridin-4-yl)-9H-purin-6-yl)morpholine], the pIC50 was 5.98 and the “Max Inhibition” value is reported as 93%.

For `C[C@@H]1COCCN1c1nc(-c2ccnc3[nH]ccc23)nc2c1cnn2S(C)(=O)=O` [Compound 23, (R)-3-methyl-4-(1-(methylsulfonyl)-6-(1H-pyrrolo[2,3-b]pyridin-4-yl)-1H-pyrazolo[3,4-d]pyrimidin-4-yl)morpholine], the “Max Inhibition” value is recorded as 92%.

As for `C[C@@H]1COCCN1c1cc(-c2ccnc3[nH]ccc23)nc2c1ncn2S(C)(=O)=O` [Compound 24, (R)-3-methyl-4-(3-(methylsulfonyl)-5-(1H-pyrrolo[2,3-b]pyridin-4-yl)-3H-imidazo[4,5-b]pyridin-7-yl)morpholine], the pIC50 is 5.99 and the “Max Inhibition” value came out at 92%.

Turning to `C[C@@H]1COCCN1c1nc(-c2cncc3[nH]ccc23)cc2c1ncn2S(C)(=O)=O` [Compound 25, (R)-3-methyl-4-(1-(methylsulfonyl)-6-(1H-pyrrolo[2,3-c]pyridin-4-yl)-1H-imidazo[4,5-c]pyridin-4-yl)morpholine], the pIC50 was 6.62 and the “Max Inhibition” value amounted to 89%.

Turning to `C[C@@H]1COCCN1c1nc(-c2ccnc3[nH]ccc23)cc2c1ccn2S(C)(=O)=O` [Compound 26, (R)-3-methyl-4-(1-(methylsulfonyl)-6-(1H-pyrrolo[2,3-b]pyridin-4-yl)-1H-pyrrolo[3,2-c]pyridin-4-yl)morpholine], the pIC50 was 6.13 and the “Max Inhibition” value was 92%.

Consider `C[C@@H]1COCCN1c1nc(-c2nc3ccccc3[nH]2)nc2c1ccn2S(C)(=O)=O` [Compound 27, (R)-4-(2-(1H-benzo[d]imidazol-2-yl)-7-(methylsulfonyl)-7H-pyrrolo[2,3-d]pyrimidin-4-yl)-3-methylmorpholine], for which the pIC50 is 6.21 and the “Max Inhibition” value is 94%.

Regarding `CNc1nc2ccccc2n1-c1nc(N2CCOC[C@H]2C)c2ccn(S(C)(=O)=O)c2n1` [Compound 28, (R)—N-methyl-1-(4-(3-methylmorpholinyl)-7-(methylsulfonyl)-7H-pyrrolo[2,3-d]pyrimidin-2-yl)-1H-benzo[d]imidazol-2-amine], the pIC50 was 7.00 and the Emax was 92%.

With `Cc1cc(-c2nc(N3CCOC[C@H]3C)c3ccn(S(C)(=O)=O)c3n2)c2cc[nH]c2c1` [Compound 29, (R)-3-methyl-4-(2-(6-methyl-1H-indol-4-yl)-7-(methylsulfonyl)-7H-pyrrolo[2,3-d]pyrimidin-4-yl)morpholine], the pIC50 is 6.42 and the “Max Inhibition” value was determined as 94%.

`C[C@@H]1COCCN1c1nc(-c2cc(C#N)cc3[nH]ccc23)nc2c1ccn2S(C)(=O)=O` [Compound 30, (R)-4-(4-(3-methylmorpholinyl)-7-(methylsulfonyl)-7H-pyrrolo[2,3-d]pyrimidin-2-yl)-1H-indol-6-carbonitrile]: the pIC50 is 5.97 and the Emax is 93%.

On to `C[C@@H]1COCCN1c1nc(-c2cc(Cl)cc3[nH]ccc23)nc2c1ccn2S(C)(=O)=O` [Compound 31, (R)-4-(2-(6-chloro-1H-indol-4-yl)-7-(methylsulfonyl)-7H-pyrrolo[2,3-d]pyrimidin-4-yl)-3-methylmorpholine], for which the pIC50 is 6.24 and the “Max Inhibition” value came out at 93%.

As to `COc1cc(-c2nc(N3CCOC[C@H]3C)c3ccn(S(C)(=O)=O)c3n2)c2cc[nH]c2c1` [Compound 32, (R)-4-(2-(6-methoxy-1H-indol-4-yl)-7-(methylsulfonyl)-7H-pyrrolo[2,3-d]pyrimidin-4-yl)-3-methylmorpholine], the pIC50 is 6.47 and the “Max Inhibition” value came out at 95%.

For `CCS(=O)(=O)n1ccc2c(N3CCOC[C@H]3C)nc(-c3ccnc4[nH]ccc34)nc21` [Compound 33, (R)-4-(7-(ethylsulfonyl)-2-(1H-pyrrolo[2,3-b]pyridin-4-yl)-7H-pyrrolo[2,3-d]pyrimidin-4-yl)-3-methylmorpholine], the pIC50 is 6.54 and the “Max Inhibition” value was 92%.
